Test results published in US11000033B2, “Ketone or oxime compound, and herbicide” (NISSAN CHEMICAL CORPORATION, priority 2014, dated 2021).

Legend:
Format in all cases: in vivo
[1] = test system: Echinochloa oryzacola Vasing.; assay: Test Example 1: herbicidal activity, application before weed generation in submerged conditions (symbol A); conditions: application herbicide amount 320 g/ha
Summary of the method: (§1)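 Greenhouse growth at 25–30 °C lasted 3 weeks after treatment, when each weed was graded 0–5 by herbicidal ratio. Treatment was a diluted emulsion applied to the water surface of 4 cm-submerged alluvial soil on the sowing day.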

Scirpus juncoides [2] = assay: Test Example 1: herbicidal activity, application before weed generation in submerged conditions (symbol B); conditions: application herbicide amount 320 g/ha
Summary of the method: as §1

Monochoria vaginalis = assay: Test Example 1: herbicidal activity, application before weed generation in submerged conditions (symbol C); conditions: application herbicide amount 320 g/ha
Summary of the method: as §1

transplanted rice plant = assay: Test Example 1: effect on crop, application before weed generation in submerged conditions (symbol a); conditions: application herbicide amount 320 g/ha
Summary of the method: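 Rice at 2.5 leaf stage transplanted into submerged soil (4 cm depth) sown with three weed species; herbicide applied before weed emergence.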

Scirpus juncoides [3] = assay: Test Example 2: herbicidal activity, application during weed generation in submerged conditions (symbol B); conditions: Table 23; application herbicide amount 320 g/ha; grade 0-5 by criteria of Test Example 1
Summary of the method: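 Treatment timing was the one- to two-leaf stage, with diluted emulsifiable compound dropped onto the paddy water (depth 4 cm) over alluvial soil. All three species grew from a mixed sowing in a 25° C. to 30° C. greenhouse. Injury was judged by eye 3 weeks on.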

Setaria viridis = assay: Test Example 4: herbicidal effect by soil treatment (symbol G); conditions: 320 g/ha
Summary of the method: (§2)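 Seeds were sown in sterilized diluvial soil, covered with about 1.5 cm of soil, and the soil surface was sprayed with a water-diluted emulsion of the compound at a predetermined rate. Plants grew in a greenhouse at 25° C. to 30° C.; effects were scored visually 3 weeks after application.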

Alopecurus myosuroides [4] = assay: Test Example 4: herbicidal effect by soil treatment (symbol J); conditions: 320 g/ha
Summary of the method: as §2

Chenopodium album = assay: Test Example 4: herbicidal effect by soil treatment (symbol O); conditions: 320 g/ha
Summary of the method: as §2

beet = assay: Test Example 4: effect on crop by soil treatment (symbol f); conditions: 320 g/ha
Summary of the method: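 Soil-treatment setup: crop and weed seeds were spot-sown into sterilized diluvial soil, then buried beneath approximately 1.5 cm of it, and the boxes were housed in a 25–30° C. greenhouse.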

[5] = test system: Echinochloa crus-galli var. crus-galli; assay: Test Example 5: herbicidal effect by foliage application, plastic box (symbol H); conditions: 320 g/ha, 3 weeks after application
Summary of the method: (§3)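 Post-emergence spray; diluvial soil (sterilized), ~1.5 cm seed cover; greenhouse 25–30° C; 14-day-old plants; water-diluted emulsion at predetermined dose; visual score at 3 wk post-treatment.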

Alopecurus myosuroides [6] = assay: Test Example 5: herbicidal effect by foliage application, plastic box (symbol J); conditions: 320 g/ha, 3 weeks after application
Summary of the method: as §3

soybean = assay: Test Example 5: effect on crop by foliage application, plastic box (symbol d); conditions: 320 g/ha, 3 weeks after application
Summary of the method: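 Plants were raised from seed in a greenhouse (25° C. to 30° C.) after sowing in a plastic box of sterilized diluvial soil.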

| SMILES | Herbicidal effect grade, A: Echinochloa oryzacola Vasing. [1] | Herbicidal effect grade, B: Scirpus juncoides (Scirpus juncoides [2]) | Herbicidal effect grade, C: Monochoria vaginalis (Monochoria vaginalis) | Effect grade on crop, a: transplanted rice plant (transplanted rice plant) | Herbicidal effect grade, B: Scirpus juncoides (Scirpus juncoides [3]) | G: Setaria viridis, herbicidal effect grade (Setaria viridis) | J: Alopecurus myosuroides, herbicidal effect grade (Alopecurus myosuroides [4]) | O: Chenopodium album, herbicidal effect grade (Chenopodium album) | f: beet, effect grade on crop (beet) | H: Echinochloa crus-galli var. crus-galli, herbicidal effect (criteria 0-5) [5] | J: Alopecurus myosuroides, herbicidal effect (criteria 0-5) (Alopecurus myosuroides [6]) | d: soybean, effect on crop (criteria 0-5) (soybean) | H: Echinochloa crus-galli var. crus-galli, herbicidal effect grade [5] | J: Alopecurus myosuroides, herbicidal effect grade (Alopecurus myosuroides [6]) | d: soybean, effect on crop grade (soybean) |
| --- | --- | --- | --- | --- | --- | --- | --- | --- | --- | --- | --- | --- | --- | --- | --- |
| CON=C(C)CC1CC(OC(=O)c2ccccc2OC(F)(F)F)=C(c2c(C)cc(C)cc2C)C1=O (stereo not drawn) [1-155] | 5 (Herbicidal ratio of 90% or more (almost completely withered)) | 5 (Herbicidal ratio of 90% or more (almost completely withered)) | 1 (Herbicidal ratio of 5% or higher and lower than 20%) | 5 (Herbicidal ratio of 90% or more (almost completely withered)) | 5 (Herbicidal ratio of 90% or more (almost completely withered)) | 5 (Herbicidal ratio of 90% or more (almost completely withered)) | 5 (Herbicidal ratio of 90% or more (almost completely withered)) | 0 (Herbicidal ratio of 5% or lower (almost no effect)) | 0 (Herbicidal ratio of 5% or lower (almost no effect)) | 5 (Herbicidal ratio of 90% or more (almost completely withered)) | 5 (Herbicidal ratio of 90% or more (almost completely withered)) | 3 (Herbicidal ratio of 40% or higher and lower than 70%) |  |  |  |
| CON=C(C)CC1CC(OC(=O)Cc2ccc(OC)cc2)=C(c2c(C)cc(C)cc2C)C1=O (stereo not drawn) [1-156] | 5 (Herbicidal ratio of 90% or more (almost completely withered)) | 5 (Herbicidal ratio of 90% or more (almost completely withered)) | 1 (Herbicidal ratio of 5% or higher and lower than 20%) | 5 (Herbicidal ratio of 90% or more (almost completely withered)) | 5 (Herbicidal ratio of 90% or more (almost completely withered)) | 5 (Herbicidal ratio of 90% or more (almost completely withered)) | 5 (Herbicidal ratio of 90% or more (almost completely withered)) | 0 (Herbicidal ratio of 5% or lower (almost no effect)) | 1 (Herbicidal ratio of 5% or higher and lower than 20%) |  |  |  | 5 (Herbicidal ratio of 90% or more (almost completely withered)) | 5 (Herbicidal ratio of 90% or more (almost completely withered)) | 3 (Herbicidal ratio of 40% or higher and lower than 70%) |
| CON=C(C)CC1CC(OC(=O)N(C)c2ccccc2)=C(c2c(C)cc(C)cc2C)C1=O (stereo not drawn) [1-159] | 5 (Herbicidal ratio of 90% or more (almost completely withered)) | 0 (Herbicidal ratio of 5% or lower (almost no effect)) | 0 (Herbicidal ratio of 5% or lower (almost no effect)) | 1 (Herbicidal ratio of 5% or higher and lower than 20%) | 1 (Herbicidal ratio of 5% or higher and lower than 20%) | 3 (Herbicidal ratio of 40% or higher and lower than 70%) | 4 (Herbicidal ratio of 70% or higher and lower than 90%) | 0 (Herbicidal ratio of 5% or lower (almost no effect)) | 0 (Herbicidal ratio of 5% or lower (almost no effect)) |  |  |  | 4 (Herbicidal ratio of 70% or higher and lower than 90%) | 5 (Herbicidal ratio of 90% or more (almost completely withered)) | 1 (Herbicidal ratio of 5% or higher and lower than 20%) |
| CON=C(C)CC1CC(OC(=O)c2c(Cl)nn(C)c2Cl)=C(c2c(C)cc(C)cc2C)C1=O (stereo not drawn) [1-160] | 5 (Herbicidal ratio of 90% or more (almost completely withered)) | 4 (Herbicidal ratio of 70% or higher and lower than 90%) | 2 (Herbicidal ratio of 20% or higher and lower than 40%) | 5 (Herbicidal ratio of 90% or more (almost completely withered)) | 4 (Herbicidal ratio of 70% or higher and lower than 90%) | 5 (Herbicidal ratio of 90% or more (almost completely withered)) | 5 (Herbicidal ratio of 90% or more (almost completely withered)) | 0 (Herbicidal ratio of 5% or lower (almost no effect)) | 0 (Herbicidal ratio of 5% or lower (almost no effect)) |  |  |  | 5 (Herbicidal ratio of 90% or more (almost completely withered)) | 5 (Herbicidal ratio of 90% or more (almost completely withered)) | 2 (Herbicidal ratio of 20% or higher and lower than 40%) |
| CON=C(C)CC1CC(OS(=O)(=O)c2ccc(C)cc2)=C(c2c(C)cc(C)cc2C)C1=O (stereo not drawn) [1-161] | 5 (Herbicidal ratio of 90% or more (almost completely withered)) | 4 (Herbicidal ratio of 70% or higher and lower than 90%) | 1 (Herbicidal ratio of 5% or higher and lower than 20%) | 4 (Herbicidal ratio of 70% or higher and lower than 90%) | 4 (Herbicidal ratio of 70% or higher and lower than 90%) | 0 (Herbicidal ratio of 5% or lower (almost no effect)) | 3 (Herbicidal ratio of 40% or higher and lower than 70%) | 0 (Herbicidal ratio of 5% or lower (almost no effect)) | 0 (Herbicidal ratio of 5% or lower (almost no effect)) |  |  |  | 4 (Herbicidal ratio of 70% or higher and lower than 90%) | 5 (Herbicidal ratio of 90% or more (almost completely withered)) | 0 (Herbicidal ratio of 5% or lower (almost no effect)) |
| CON=C(C)CC1CC(OC(=O)c2ccc(S(C)(=O)=O)c(C(=O)OC)c2Cl)=C(c2c(C)cc(C)cc2C)C1=O (stereo not drawn) [1-162] | 5 (Herbicidal ratio of 90% or more (almost completely withered)) | 4 (Herbicidal ratio of 70% or higher and lower than 90%) | 3 (Herbicidal ratio of 40% or higher and lower than 70%) | 5 (Herbicidal ratio of 90% or more (almost completely withered)) | 1 (Herbicidal ratio of 5% or higher and lower than 20%) | 5 (Herbicidal ratio of 90% or more (almost completely withered)) | 5 (Herbicidal ratio of 90% or more (almost completely withered)) | 0 (Herbicidal ratio of 5% or lower (almost no effect)) | 0 (Herbicidal ratio of 5% or lower (almost no effect)) |  |  |  | 5 (Herbicidal ratio of 90% or more (almost completely withered)) | 5 (Herbicidal ratio of 90% or more (almost completely withered)) | 2 (Herbicidal ratio of 20% or higher and lower than 40%) |
| CON=C(C)CC1CC(OC(=O)C(C)Oc2ccc(Oc3ccc(Cl)cc3Cl)cc2)=C(c2c(C)cc(C)cc2C)C1=O (stereo not drawn) [1-163] | 5 (Herbicidal ratio of 90% or more (almost completely withered)) | 4 (Herbicidal ratio of 70% or higher and lower than 90%) | 0 (Herbicidal ratio of 5% or lower (almost no effect)) | 5 (Herbicidal ratio of 90% or more (almost completely withered)) | 4 (Herbicidal ratio of 70% or higher and lower than 90%) | 5 (Herbicidal ratio of 90% or more (almost completely withered)) | 5 (Herbicidal ratio of 90% or more (almost completely withered)) | 0 (Herbicidal ratio of 5% or lower (almost no effect)) | 0 (Herbicidal ratio of 5% or lower (almost no effect)) |  |  |  | 5 (Herbicidal ratio of 90% or more (almost completely withered)) | 5 (Herbicidal ratio of 90% or more (almost completely withered)) | 2 (Herbicidal ratio of 20% or higher and lower than 40%) |
